From patent publication US20170231910A1, “PHARMACEUTICAL FORMULATIONS OF CHELATING AGENTS AS A METAL REMOVAL TREATMENT SYSTEM” (ZONEONE PHARMA, INC., priority 2014, published 2017)
Structures can show the parent of a compound that is named as a salt.

Tests used:
[1] = PK of DFO in plasma of mice after liposomal DFO or Desferal; type: in vivo, CF-1 female mice; conditions: 100 mg/kg
Method: Liposomes containing egg PC/Chol (3 mol/2 mol, LDFO-1), egg PC/DOPG/Chol (2.7 mol/0.3 mol/2 mol, LDFO-2), and HSPC/Chol (3 mol/2 mol, LDFO-4) containing 500 mM ammonium sulfate were prepared as in Example 1. DFO was remote loaded as in Example 20.
After loading the liposomes were purified by dialysis versus HBS pH 6.5. The liposomes were sterilized by filtration through 0.2 um PES filters and analyzed for drug and lipid content. The liposomal DFO were administered to CF-1 female mice at 100 mg/kg (n=3) and at various times the animals were sacrificed and blood taken.
After processing to plasma, DFO was extracted from plasma by mixing with 6 volumes of methanol containing 0.1% trifluoroacetic acid in an eppendorf tube. The mixtures were vortexed twice for 10 seconds then placed at −80° C. for 1 h. The samples were thawed and centrifuged for 12,000 rpm for 10 min at 4° C. and the supernatant analyzed for DFO by HPLC as described herein. […] By comparison DFO was undetectable beyond 1 h after dosing with Desferal®.

[2] = tested on: Iron Overloaded Mouse Model; assay: Liver iron removal from iron overloaded mouse model (ferrozine assay); type: in vivo; conditions: iron-dextran overloaded mice, IV 100 mg/kg chelator on day 7 and day 10
Method: LDFO formulations were prepared as described in Example 1. Both formulations were composed of HSPC/cholesterol (3/0.5 (mol/mol)). One formulation was prepared using 250 mM ammonium sulfate (LDFO-AS) as the trapping agent and the second formulation was prepared using 250 mM ascorbate phosphate (LDFO-AP) as the trapping agent and all other components and DFO loading procedures of the formulations were identical. Mice were overloaded with a single IV injection of iron-dextran at 100 mg/kg Fe. Overloaded mice were treated with each formulation IV at 100 mg/kg chelator on day 7 and day 10. The mice were sacrificed after the second treatment and the livers were analyzed for iron content using a ferrozine assay (Riemer et al. 2004)

CC(=O)N(O)CCCCCNC(=O)CCC(=O)N(O)CCCCCNC(=O)CCC(=O)N(O)CCCCCN [Desferal, deferoxamine mesylate]
DFO in plasma after dosing ([1]; beyond 1 h after dosing): undetectable | initial dose (ID) of DFO retained in the plasma at 24 h ([1]; IV, 24 h): undetectable | mean liver iron content after treating [2]: 229 mg/kg
